We go through 11 molecules from US5552267A, “Solution for prolonged organ preservation” (priority 1994, dated 1996).

“Also recorded” adds a separate entry of the source. Where a SMILES comes first, the peptide text is derived from it.

Assay [1] relates to cGMP-dependent protein kinase. The note with it: relative to cGMP; cited from earlier work.
Assay [2] has as its system heart. Put plainly: heterotopic rat cardiac transplant, cAMP series, graft survival/score. It is filed as in vivo, rat (male Sprague-Dawley). The note with it: 12 h in LR. An excerpt: Preservation solutions included lactated Ringer's (LR) solution Baxter, Edison, N.J.), or LR supplemented with rolipram ZK 62 711, Schering AG, Berlin, Germany), indolidan LY195115, Lilly Research Laboratories, Indianapolis, Ind.), sodium butyrate, 8-bromoadenosine, 8-bromoadenosine 3',5'monophosphate (8-Br-cAMP; Sigma Chemical Co., St. Louis, Mo.), the Rp -isomer of adenosine 3',5'monophosphorothioate (Rp -cAMPS; Biolog, La Jolla, Calif.), the Sp isomer of adenosine 3',5'monophosphorothioate (Sp -cAMPS; Biolog), and N^6,O^2' -dibutyryl adenosine 3',5'monophosphate sodium (db-cAMP; Aldrich, Milwaukee, Wis.). Components were combined within 4 hrs of donor cardiectomy, and preservation solutions were kept at 4° C. University of Wisconsin solution (UW)(2-4 was purchased from Dupont (Wilmington, Del.).
Donor Cardiectomy. Male Sprague-Dawley rats (350-450 grams, Camm Research, Wayne, N.J.) were anesthetized, heparinized (1000 units of heparin given intravenously), and the donor heart removed in the following manner; a midline incision was performed, followed by rapid cardioplegic arrest with 5 ml of cold (4° C.), high potassium solution (NACl, 0.9%, and KCl, 40 mEq/L). The heart was maintained at 4° C. throughout the harvest procedure by the application of a cold saline soaked gauze over its surface. […] The aortic root was flushed with ≈15 ml of the cold preservation solution until the coronary arteries became visibly clear, and the heart remained in the cold storage solution for the indicated duration until the time of transplantation.
Heterotopic Transplant. The same breed/size of rat was used, and similarly anesthetized, but not given heparin. A midline abdominal incision was made, and the infrarenal aorta and vena cava were occluded with a side-biting vascular clamp and longitudinal incisions were made in each vessel. The donor heart was removed from the preservation solution and kept moist with saline-soaked gauze. […] Blood flow was restored to the graft (by removal of the clamp) exactly one hour after removal from the cold preservation solution. […] Ten minutes after removal of the cross-clamp, an electrocardiogram was taken (Grass Polygraph, Quincy, Mass.) and the heart was judged by the same blinded investigators throughout based on the presence/absence of regular contractions and a transplant score (0-5, worst-best, respectively) employing the following criteria: contraction (poor=0, average=1, vigorous=2), tissue turgor (hard=0, average=1, soft=2), and color (dusky=0, pink=1). […] The heterotopic cardiac transplant experiments performed in these studies were done by a single surgeon after establishment of this model and acquisition of surgical expertise, with control and experimental groups interspersed throughout the study period to prevent a time-dependent bias pertaining to surgical skills.
Statistics. Graft survival data and transplant scores were analyzed using the Kruskal-Wallis non-parametric analysis of variance (38). Comparisons of individual treatments were performed using the procedure described by Dunn (39). In addition, the effect of db-cAMP on the time-course of graft failure was quantified by multivariate logistic regression. Graft myeloperoxidase data, microsphere data, and cAMP/adenylate cyclase/phosphodiesterase data from experiments with cultured vascular smooth muscle cells were analyzed by t-tests when 2 treatments were performed or by analysis of variance when 3 or more treatments were performed. In the latter case, post-hoc comparison of treatment groups were tested using Tukey's procedure. Values are expressed as means ±SEM, with a p <0.05 considered statistically significant.

For assay [3], the system named is lung. Put plainly: orthotopic rat left lung transplantation, cGMP series (hemodynamics, oxygenation, recipient survival). The following applies: 6 h in EC. It is filed as in vivo, rat (male Lewis). As to the method: Orthotopic rat left lung transplantation was accomplished using inbred male Lewis rats (250-300 gms), using a modification of a previously described technique^29. The donor rat was anesthetized and heparinized (500 U intravenously), and endotracheal intubation was performed by inserting a 16 gauge angiocatheter into the trachea using blunt cervical dissection, after which the rat was ventilated with room air at a constant rate (100 breaths/minute) and tidal volume (2.5 ml), using a Harvard rodent ventilator. […] The pulmonary artery (PA) and pulmonary vein (PV) were divided, the bronchus ligated with the lung partially inflated and then divided, and the lung removed. The vascular stumps were each pulled through a small plastic cylinder, and a lip of vessel was turned back around the edge and secured in place with a suture to form a "cuff." A small plastic cylinder was inserted into the bronchial stump and secured, and the lung was then wrapped in gauze and submerged in cold preservation solution for the desired interval.
The recipient rat (gender/size/strain-matched) was similarly anesthetized and intubated (ventilated with 100% oxygen), but not heparinized. A left thoracotomy was performed, the hilum was dissected, and the left bronchus, PA, and PV were isolated, cross-clamped, divided and the native lung was removed from the field. The PA and PV stumps were rinsed with heparinized saline to remove any clot. The donor lung was brought onto the surgical field, and the cylinder (bronchus) and cuffs (PA and PV) were connected rapidly to their respective structures with a simple staying suture. This cuff technique permitted rapid approximation of donor and recipient tissues with no contact of a foreign substance with the luminal vascular surface. The hilar cross-clamp was released, re-establishing blood flow, and the bronchus tie was removed, enabling gas exchange. A snare was then passed around the right PA, and a Millar catheter (2F; Millar Instruments,Houston, Tex.) was introduced through a small hole (surrounded by a pursestring) into the main PA; similarly, a Millar catheter was introduced into the left atrium (LA). A flow probe (Transonics, Ithaca, N.Y.) was then placed around the main PA. Arterial blood gas sampling performed via the left femoral artery.
Online hemodynamic monitoring was accomplished using MacLab and a Macintosh IIci computer. The hemodynamic parameters that were measured included PA pressure (mm Hg), blood flow (ml/min), LA pressure (mm Hg), as well as arterial oxygen tension (mm Hg) during inspiration of 100% oxygen; pO2 was analyzed with a model ABL-2 dissolved gas analyzer (Radiometer, Copenhagen, Denmark). Pulmonary vascular resistances (PVRs) were calculated as [mean PA pressure-LA pressure]/PA flow. The native lung supported the recipient during the period of warm ischemia (the period during which the donor lung was removed from cold preservation until the time of reperfusion, <10 min. in all instances), but immediately following rapid hemodynamic instrumentation and acquisition of baseline measurements, the native (right) PA was then ligated, and serial measurements (representative solely of the transplanted lung) were taken every five minutes for 30 minutes. Because the native lung was effectively removed from the circulation by ligation of the right PA, these measurements represent function of the transplanted lung. Recipient death was identified by the cessation of cardiac mechanical activity observed through the thoracotomy.
Preservation solutions were freshly made and coded by a technician not otherwise involved in the experiments, according to a general plan which included both control and experimental groups. […]

In assay [4] the test system is nitric oxide at lung surface. As to the kind of experiment: in vivo pulmonary NO with porphyrinic microsensor. Set-up: species or system rat. The note with it: during continued reperfusion; A23187 9.5 μM. As for the experimental part: Measurements of nitric oxide concentrations in vivo were performed with a two electrode system using a porphyrinic sensor as a working electrode and a platinum wire as an auxiliary/reference electrode. The porphyrinic sensor with a flexible base was lowered onto the exposed surface of the lung using a micromanipulator. A small piezoelectric signal (mechanically generated current) was used to indicate that the sensor had made contact with the tissue surface. NO measurements were begun once the flexible sensor assumed an L-shaped configuration on the tissue surface and the platinum wire was connected to adjacent tissue. Continous amperometric (current-time) measurements were obtained at a constant potential of 0.68 V, during the period of warm ischemia (after the lung was sewn in place but not yet reperfused) and continously as the vascular cross-clamp was released and reperfusion initiated. Topical application of the calcium ionophore (A23187, 9.5 μM; Sigma) and superoxide dismutase (100 U/ml; Sigma) was applied as monitoring was continued.

For assay [5], the system named is cardiac graft vasculature. Put plainly: perfusion of donor grafts by microspheres, nitric oxide series. The class given is in vivo, rat. The following applies: 12 h preservation in LR. As for the experimental part: Ten minutes after restoration of blood flow, 0.5 ml of 10 μm diameter microspheres (10^6 /ml) (E-Z Trac, Los Angeles, Calif.) was injected into the donor aortic root. Deposition of microspheres in ventricular tissue was assessed following alkaline hydrolysis, washing, and counting of microspheres as described^8, with results expressed as number of spheres per (40×) field per gram of ventricle. A minimum of ten fields were counted and the mean ±SEM is reported.

Assay [6] has as its system nitric oxide production in heart. As to the kind of experiment: direct measurement of coronary vascular and endocardial NO with porphyrinic microsensor. Set-up: species or system rat. As for the experimental part: Direct measurement of coronary vascular and endocardial nitric oxide synthesis were made with a porphyrinic microsensor^13 using differential pulse voltammetry or amperometry. Rat hearts were explanted and preserved as described above, and studied fresh (no preservation/transplantation) or after hypothermic preservation in lactated Ringer's (LR) solution, heterotopic transplantation, and 10 minutes of reperfusion. The coronary vasculature was flushed free of blood with LR followed by 4 ml of LR supplemented with L-Arg (2 mM) and bradykinin ([…], Sigma), which was recycled (1 ml/min) through the coronary vasculature by flushing down the cross-clamped aortic root. Aliquots of perfusate were immediately transferred to an anaerobic environment for measurements and compared to an aqueous nitric oxide reference. Differential pulse voltammograms were obtained using a sensor (working electrode), saturated calomel electrode reference, and platinum wire-auxiliary electrode, with a pulse amplitude of 40 mV. Endocardial NO was measured by implanting the sensor in the septal endocardium of a freshly explanted or preserved/transplanted heart, and after the baseline stabilization, […] bradykinin was applied and NO release continuously monitored by amperometry at constant potential of 0.63 V.

Assay [7] relates to heart. As to the kind of experiment: heterotopic rat cardiac transplant, nitric oxide series, graft survival/score. The class given is in vivo, rat (male Sprague-Dawley). The following applies: 12 h in LR. The text has this:
Male Sprague-Dawley rats (350 grams, Camm Research, Wayne, N.J.) were used, and harvest, preservation, and transplantation procedures performed as described^8. Preservation solutions included lactated Ringer's (LR) solution (Baxter, Edison, N.J.), or LR supplemented with nitroglycerin (DuPont, Wilmington, Del.), sodium nitroprusside (Roche Laboratories, Nutley, N.J.), N^G -monomethyl-L-arginine (L-NMMA; Chembiochem, Salt Lake City, Utah), L-arginine (Sigma Chemical Co., St. Louis, Mo.), or 8-bromoguanosine3',5'monophosphate (8-Br-cGMP; Sigma). Components were combined within 4 hrs of donor cardiectomy, and preservation solutions were kept at 4° C. All of these solutions were at the pH of LR (6.6). University of Wisconsin solution (UW) was purchased from Dupont. […] Ten minutes after removal of the cross-clamp, an electrocardiogram was taken (Grass Polygraph, Quincy, Mass.) and the heart was judged by the same blinded investigators throughout based on the presence/absence of regular contractions and a transplant score (0-5, worst-best, respectively) employing the following criteria: contraction (poor=0, average=1, vigorous=2), tissue turgor (hard=0, average=1, soft=2), and color (dusky=0, pink=1).
Graft survival data was analyzed by contingency analysis (chi-square). Transplant scores, microsphere perfusion, myeloperoxidase, NO synthase, and platelet serotonin release data were analyzed using ANOVA for unpaired variables with the Tukey test used to discriminate significant differences between group means. Values are expressed as means ±SEM, with a p<0.05 considered statistically significant.

Assay [8] deals with heart. The following applies: in vivo; cited from earlier work.

With `Nc1ncnc2c1nc(Br)n2[C@@H]1O[C@@H]2COP(=O)(O)O[C@H]2[C@H]1O` [8-Br-cAMP, 8-bromoadenosine 3'5'monophosphate], the “fold less potent than cGMP in activating cGMP-dependent protein kinase” value in assay [1] was 53 fold. In assay [2], the “concentration for optimal/maximal preservation” value was found to be 0.1 mM and the “effect on cardiac preservation” value is “prolonged graft survival”. Besides, the graft survival in assay [2] (8-Br-cAMP 0.1 mM) amounted to 100%.

On to `Nc1nc2c(nc(Br)n2[C@@H]2O[C@H](CO)[C@@H](O)[C@H]2O)c(=O)[nH]1` [8-Br-guanosine], for which, in assay [3], the “effect on lung preservation” value is given as “without effect”.

On to `Nc1nc2c(nc(Br)n2[C@@H]2O[C@H](COP(=O)(O)O)[C@@H](O)[C@H]2O)c(=O)[nH]1` [8-bromoguanosine 5'monophosphate], for which, in assay [3], the “effect on lung preservation” value was “without effect”.

On to `CNc1ccc2oc(C[C@H]3O[C@@]4(CC[C@H]3C)O[C@H]([C@H](C)C(=O)c3ccc[nH]3)[C@H](C)C[C@H]4C)nc2c1C(=O)O` [A23187], for which the “effect on decline in NO” value in assay [4] is “did not alter the decline in NO”.

For `CNC(=N)NCCC[C@H](N)C(=O)O` [L-NMMA, N^G -monomethyl-L-arginine], the “graft blood flow” value in assay [5] was “decreased blood flow”. In addition, the “effect on NO levels” value in assay [6] (transplanted hearts) was “blocked further NO production”. In addition, the “effect on graft preservation (words)” value in assay [7] is “blocked the beneficial effects of L-Arg”; in assay [7] (listed as N^G -monomethyl-L-arginine), “no survival of cardiac grafts; also recorded: poor preservation”. The molecule also displayed a graft survival in assay [7] (NTG 0.1 mg/ml where added) of 0%.

Take `N=C(NCCC[C@H](N)C(=O)O)N[N+](=O)[O-]` [N^ω -nitro-L-arginine]: in assay [7], the “effect on graft preservation (words)” value is reported as “blocked the beneficial effects of L-Arg”.

Turning to `N=c1c[n+](N2CCOCC2)[n-]o1` [SIN-1], the “effect in cardiac ischemia models” value in assay [8] is “improve vascular function and outcome”.

For the molecule `O=NO` [acidified sodium nitrite, sodium nitrite], in assay [8], the “effect in cardiac ischemia models” value was “blunt myocardial injury and neutrophil accumulation during reperfusion; also recorded: improve vascular function and outcome”.

In the case of `NC(N)=NCCC[C@H](NC(=O)[C@H](Cc1ccccc1)NC(=O)[C@@H]1CCCN1C(=O)[C@H](CO)NC(=O)[C@H](Cc1ccccc1)NC(=O)CNC(=O)[C@@H]1CCCN1C(=O)[C@@H]1CCCN1C(=O)[C@@H](N)CCCN=C(N)N)C(=O)O` [bradykinin] (H-RPPGFSPFR-OH), the “endocardial NO plateau following bradykinin challenge” value in assay [6] (freshly explanted heart) stood at 0.67 ± 0.06 µM; in assay [6] (preserved (38 hrs) heart), 0.17 ± 0.05 µM.

As to `CC1(C)C(=O)Nc2ccc(C3=NNC(=O)CC3)cc21` [indolidan], in assay [2], the “effect on cardiac preservation” value was “uniformly enhanced preservation”.

`CCCC(=O)Nc1ncnc2c1ncn2[C@@H]1O[C@@H]2COP(=O)(O)O[C@H]2[C@H]1O` [mb-cAMP, N^6 -monobutyryladenosine 3'5'monophosphate]: the “fold less potent than cGMP in activating cGMP-dependent protein kinase” value in assay [1] was 313 fold.
